Laboratory results reported in US20090016990A1, “Antimicrobial Compositions” (priority 2007, published 2009).

Legend:
[1] = test system: Pseudomonas aeruginosa ATCC 27853; experiment: MBEC assay, biofilm inhibition (prevention of biofilm formation), MBEC bioFILM PA panel; assay type: cell-based; set-up: MBEC-Biofilm Inhibition, Without compound 9 / MBEC-Biofilm Inhibition, Without compound 6 / MBEC-Biofilm Inhibition, Without compound 2 / MBEC-Biofilm Inhibition, Without compound 7 / MBEC-Biofilm Inhibition, With 0.01% compound 7 in 5% EtOH/PBS / MBEC-Biofilm Inhibition, without salt of compound 2 / MBEC-Biofilm Inhibition, with 0.1% salt of compound 2 / MBEC-Biofilm Inhibition, without salt of compound 6: unit not given here; settings: for MBEC-Biofilm Inhibition, without salt of compound 2 / MBEC-Biofilm Inhibition, with 0.1% salt of compound 2: Table 9; for MBEC-Biofilm Inhibition, without salt of compound 2 / MBEC-Biofilm Inhibition, without salt of compound 6: antibiotic or antibiotic combination alone; for MBEC-Biofilm Inhibition, without salt of compound 2 / MBEC-Biofilm Inhibition, with 0.1% salt of compound 2 / MBEC-Biofilm Inhibition, without salt of compound 6 / MBEC-Biofilm Inhibition, with 0.1% salt of compound 6: value per component; for MBEC-Biofilm Inhibition, without salt of compound 2: separated by /; for MBEC-Biofilm Inhibition, with 0.1% salt of compound 2: antibiotic or combination plus 0.1% salt of compound 2; for MBEC-Biofilm Inhibition, without salt of compound 6 / MBEC-Biofilm Inhibition, with 0.1% salt of compound 6: Table 10; for MBEC-Biofilm Inhibition, with 0.1% salt of compound 6: antibiotic or combination plus 0.1% salt of compound 6; for MBEC-Biofilm Inhibition, Without compound 1 / MBEC-Biofilm Inhibition, Without compound 2 / MBEC-Biofilm Inhibition, Without compound 3 / MBEC-Biofilm Inhibition, Without compound 6 / MBEC-Biofilm Inhibition, Without compound 7 / MBEC-Biofilm Inhibition, Without compound 9: antibiotic alone; for MBEC: antibiotic or combination alone, concentrations in order of the combination; for MBEC, μg/mL +Compound 1: antibiotic plus Compound 1; for MBEC, μg/mL +Compound 2: antibiotic plus Compound 2; for MBEC, μg/mL +Compound 7: antibiotic plus Compound 7; for MBEC-Biofilm Inhibition, With 0.01% compound 1 in 5% EtOH/PBS / value in parentheses after MBEC-Biofilm Inhibition with 0.01% compound 1 (% reduction as in Table 2): with 0.01% compound 1 in 5% EtOH/PBS
[2] = test system: Pseudomonas aeruginosa ATCC 27853; experiment: MBEC assay, biofilm elimination, MBEC bioFILM PA panel; assay type: cell-based; set-up: MBEC-Biofilm Elimination, Without compound 2 / MBEC-Biofilm Elimination, With 0.01% compound 2 in 5% EtOH/PBS / MBEC-Biofilm Elimination, Without compound 7 / MBEC-Biofilm Elimination, With 0.01% compound 7 in 5% EtOH/PBS / MBEC-Biofilm Elimination, Without compound 1 / MBEC-Biofilm Elimination, With 0.01% compound 1 in 5% EtOH/PBS / MBEC-Biofilm Elimination, without salt of compound 2 / MBEC-Biofilm Elimination, with 0.1% salt of compound 2: unit not given here; settings: for MBEC-Biofilm Elimination, without salt of compound 2 / MBEC-Biofilm Elimination, with 0.1% salt of compound 2: Table 9; for MBEC-Biofilm Elimination, without salt of compound 2 / MBEC-Biofilm Elimination, without salt of compound 6: antibiotic or antibiotic combination alone; for MBEC-Biofilm Elimination, without salt of compound 2 / MBEC-Biofilm Elimination, with 0.1% salt of compound 2 / MBEC-Biofilm Elimination, without salt of compound 6 / MBEC-Biofilm Elimination, with 0.1% salt of compound 6: value per component; for MBEC-Biofilm Elimination, with 0.1% salt of compound 2: antibiotic or combination plus 0.1% salt of compound 2; for MBEC-Biofilm Elimination, without salt of compound 6 / MBEC-Biofilm Elimination, with 0.1% salt of compound 6: Table 10; for MBEC-Biofilm Elimination, with 0.1% salt of compound 6: antibiotic or combination plus 0.1% salt of compound 6; for MBEC-Biofilm Elimination, Without compound 1 / MBEC-Biofilm Elimination, Without compound 2 / MBEC-Biofilm Elimination, Without compound 3 / MBEC-Biofilm Elimination, Without compound 6 / MBEC-Biofilm Elimination, Without compound 7 / MBEC-Biofilm Elimination, Without compound 9: antibiotic alone
[3] = reduction of antibiotic or combination required to prevent biofilm formation
[4] = with 0.01% compound 2 in 5% EtOH/PBS

SMILES	MBEC-Biofilm Inhibition, without salt of compound 2 [1]	MBEC-Biofilm Inhibition, with 0.1% salt of compound 2 [1]	MBEC-Biofilm Inhibition, without salt of compound 6 [1]	MBEC-Biofilm Inhibition, with 0.1% salt of compound 6 [1]	MBEC-Biofilm Inhibition, Without compound 1 [1]	MBEC-Biofilm Inhibition, Without compound 2 [1]	MBEC-Biofilm Inhibition, Without compound 3 [1]	MBEC-Biofilm Inhibition, Without compound 6 [1]	MBEC-Biofilm Inhibition, Without compound 7 [1]	MBEC-Biofilm Inhibition, Without compound 9 [1]	MBEC-Biofilm Inhibition, With 0.01% compound 1 in 5% EtOH/PBS [1]	MBEC-Biofilm Inhibition, With 0.01% compound 2 in 5% EtOH/PBS [1, 4]	MBEC-Biofilm Inhibition, With 0.01% compound 7 in 5% EtOH/PBS [1]	MBEC-Biofilm Inhibition, With 0.05% compound 3 in 5% EtOH/PBS [1]	MBEC-Biofilm Inhibition, With 0.05% compound 6 in 5% EtOH/PBS [1]	MBEC-Biofilm Elimination, without salt of compound 2 [2]	MBEC-Biofilm Elimination, with 0.1% salt of compound 2 [2]	MBEC-Biofilm Elimination, without salt of compound 6 [2]	MBEC-Biofilm Elimination, with 0.1% salt of compound 6 [2]	MBEC-Biofilm Elimination, Without compound 1 [2]	also measured
O=C(O)c1cn(C2CC2)c2cc(N3CCNCC3)c(F)cc2c1=O [CP, ciprofloxacin]	>0.5	>0.5	>0.5	>0.5	>0.5	>0.5	>0.5	>0.5	>0.5	0.5	0.5	0.5	>0.5	>0.5	>0.5	>0.5	0.5	>0.5	>0.5	>0.5	MBEC [1]: >0.5 µg/mL; MBEC, μg/mL +Compound 1 [1]: 0.5 µg/mL; MBEC, μg/mL +Compound 2 [1]: >0.5 µg/mL; MBEC, μg/mL +Compound 7 [1]: 0.5 µg/mL; (% reduction) +Compound 1 [1, 3]: > 50%; (% reduction) +Compound 7 [1, 3]: > 50%; value in parentheses after MBEC-Biofilm Inhibition with 0.01% compound 1 (% reduction as in Table 2) [1]: ≥ 50; value in parentheses after MBEC-Biofilm Inhibition with 0.01% compound 2 (% reduction as in Table 2) [1, 4]: ≥ 50; MBEC-Biofilm Elimination, Without compound 2 [2]: >0.5; MBEC-Biofilm Elimination, Without compound 3 [2]: >0.5; MBEC-Biofilm Elimination, Without compound 6 [2]: >0.5; MBEC-Biofilm Elimination, Without compound 7 [2]: >0.5; MBEC-Biofilm Elimination, Without compound 9 [2]: >0.5; MBEC-Biofilm Elimination, With 0.01% compound 1 in 5% EtOH/PBS [2]: >0.5; MBEC-Biofilm Elimination, With 0.01% compound 2 in 5% EtOH/PBS [2]: >0.5; MBEC-Biofilm Elimination, With 0.01% compound 7 in 5% EtOH/PBS [2]: >0.5; MBEC-Biofilm Elimination, With 0.05% compound 3 in 5% EtOH/PBS [2]: >0.5; MBEC-Biofilm Elimination, With 0.05% compound 6 in 5% EtOH/PBS [2]: >0.5
CO/N=C(\C(=O)N[C@@H]1C(=O)N2C(C(=O)[O-])=C(C[N+]3(C)CCCC3)CS[C@H]12)c1csc(N)n1 [CPE, cefepime]	>4	>4	>4	>4	>4	>4	>4	>4	>4	>4	>4	>4	>4	>4	>4	>4	>4	>4	>4	>4	MBEC-Biofilm Elimination, Without compound 2 [2]: >4; MBEC-Biofilm Elimination, Without compound 3 [2]: >4; MBEC-Biofilm Elimination, Without compound 6 [2]: >4; MBEC-Biofilm Elimination, Without compound 7 [2]: >4; MBEC-Biofilm Elimination, Without compound 9 [2]: >4; MBEC-Biofilm Elimination, With 0.01% compound 1 in 5% EtOH/PBS [2]: >4; MBEC-Biofilm Elimination, With 0.01% compound 2 in 5% EtOH/PBS [2]: >4; MBEC-Biofilm Elimination, With 0.01% compound 7 in 5% EtOH/PBS [2]: >4; MBEC-Biofilm Elimination, With 0.05% compound 3 in 5% EtOH/PBS [2]: >4; MBEC-Biofilm Elimination, With 0.05% compound 6 in 5% EtOH/PBS [2]: >4
C[C@@H](O)[C@H]1C(=O)N2C(C(=O)O)=C(S[C@@H]3CN[C@H](C(=O)N(C)C)C3)[C@H](C)[C@H]12 [MER, meropenem]	>2	>2	>2	>2	>2	>2	>2	>2	>2	>2	>2	>2	>2	>2	>2	>1	>1	>1	>1	>1	MBEC-Biofilm Inhibition, With 0.1% w/v compound 9 in PBS [1]: >2; MBEC-Biofilm Elimination, Without compound 2 [2]: >1; MBEC-Biofilm Elimination, Without compound 3 [2]: >1; MBEC-Biofilm Elimination, Without compound 6 [2]: >1; MBEC-Biofilm Elimination, Without compound 7 [2]: >1; MBEC-Biofilm Elimination, Without compound 9 [2]: >1; MBEC-Biofilm Elimination, With 0.01% compound 1 in 5% EtOH/PBS [2]: >1; MBEC-Biofilm Elimination, With 0.01% compound 2 in 5% EtOH/PBS [2]: >1; MBEC-Biofilm Elimination, With 0.01% compound 7 in 5% EtOH/PBS [2]: >1; MBEC-Biofilm Elimination, With 0.05% compound 3 in 5% EtOH/PBS [2]: 1; MBEC-Biofilm Elimination, With 0.05% compound 6 in 5% EtOH/PBS [2]: >1; MBEC-Biofilm Elimination, With 0.1% w/v compound 9 in PBS [2]: >1
NC[C@H]1O[C@H](O[C@H]2[C@H](O)[C@@H](O[C@H]3O[C@H](CO)[C@@H](O)[C@H](N)[C@H]3O)[C@H](N)C[C@@H]2N)[C@H](N)C[C@@H]1O [TO, tobramycin]	>2	>2	>2	>2	>2	>2	>2	>2	>2	2	0.5-2	>2	>2	>2	>2	>2	>2	>2	>2	>2	MBEC [1]: >2 µg/mL; MBEC, μg/mL +Compound 1 [1]: 0.5 to 2 µg/mL; MBEC, μg/mL +Compound 2 [1]: >2 µg/mL; MBEC, μg/mL +Compound 7 [1]: >2 µg/mL; (% reduction) +Compound 1 [1, 3]: > 50%; value in parentheses after MBEC-Biofilm Inhibition with 0.01% compound 1 (% reduction as in Table 2) [1]: ≥ 50; MBEC-Biofilm Inhibition, With 0.1% w/v compound 9 in PBS [1]: >2; MBEC-Biofilm Elimination, Without compound 2 [2]: >2; MBEC-Biofilm Elimination, Without compound 3 [2]: >2; MBEC-Biofilm Elimination, Without compound 6 [2]: >2; MBEC-Biofilm Elimination, Without compound 7 [2]: >2; MBEC-Biofilm Elimination, Without compound 9 [2]: >2; MBEC-Biofilm Elimination, With 0.01% compound 1 in 5% EtOH/PBS [2]: >2; MBEC-Biofilm Elimination, With 0.01% compound 2 in 5% EtOH/PBS [2]: 1; MBEC-Biofilm Elimination, With 0.01% compound 7 in 5% EtOH/PBS [2]: 0.5; MBEC-Biofilm Elimination, With 0.05% compound 3 in 5% EtOH/PBS [2]: >2; MBEC-Biofilm Elimination, With 0.05% compound 6 in 5% EtOH/PBS [2]: >2; MBEC-Biofilm Elimination, With 0.1% w/v compound 9 in PBS [2]: >2
